From PMC6195743, “Renewable production of high density jet fuel precursor sesquiterpenes from Escherichia coli” (Biotechnology for Biofuels, 2018) come the findings set out here.

What all share (assay): GC-MS of decane overlay from E. coli expressing the synthase
Holding throughout (assay type): cell-based

In assay [1] the target is T1, α-isocomene synthase (MrTPS2; codon-optimized coMrTPS2) (Matricaria chamomilla, UniProt I6R4V5).
T1 construct: codon-optimized gene, untagged, plasmids pTrc99a / pBbE7a / prstA, expressed in E. coli DH1
T1 sequence (I6R4V5 1-546): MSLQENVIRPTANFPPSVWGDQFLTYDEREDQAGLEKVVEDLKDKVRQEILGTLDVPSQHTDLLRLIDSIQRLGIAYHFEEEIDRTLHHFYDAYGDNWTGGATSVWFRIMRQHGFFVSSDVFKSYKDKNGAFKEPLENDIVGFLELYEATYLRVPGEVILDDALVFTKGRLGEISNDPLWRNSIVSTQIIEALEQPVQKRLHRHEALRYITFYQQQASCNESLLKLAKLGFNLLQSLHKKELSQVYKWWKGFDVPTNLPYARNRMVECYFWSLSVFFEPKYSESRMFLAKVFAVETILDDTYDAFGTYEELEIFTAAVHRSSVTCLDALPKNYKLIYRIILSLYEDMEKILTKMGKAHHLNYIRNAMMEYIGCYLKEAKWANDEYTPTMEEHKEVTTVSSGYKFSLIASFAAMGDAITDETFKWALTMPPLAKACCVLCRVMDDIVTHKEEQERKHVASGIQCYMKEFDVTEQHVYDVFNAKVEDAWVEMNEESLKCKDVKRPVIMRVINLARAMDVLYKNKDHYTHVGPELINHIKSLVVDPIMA
The following applies: main product alpha-isocomene with silphinene, modephene, beta-isocomene, caryophyllene, alpha-humulene; endogenous FPP supply, no FPP added.

Assay [2] has as its target T2, epi-isozizaene synthase (EIZS; codon-optimized coEIZS) (Streptomyces coelicolor, UniProt Q9K499).
T2 construct: gene cyc1; codon-optimized gene, untagged, plasmids pTrc99a / pBbE7a / prstA, expressed in E. coli DH1
T2 sequence (Q9K499 1-361): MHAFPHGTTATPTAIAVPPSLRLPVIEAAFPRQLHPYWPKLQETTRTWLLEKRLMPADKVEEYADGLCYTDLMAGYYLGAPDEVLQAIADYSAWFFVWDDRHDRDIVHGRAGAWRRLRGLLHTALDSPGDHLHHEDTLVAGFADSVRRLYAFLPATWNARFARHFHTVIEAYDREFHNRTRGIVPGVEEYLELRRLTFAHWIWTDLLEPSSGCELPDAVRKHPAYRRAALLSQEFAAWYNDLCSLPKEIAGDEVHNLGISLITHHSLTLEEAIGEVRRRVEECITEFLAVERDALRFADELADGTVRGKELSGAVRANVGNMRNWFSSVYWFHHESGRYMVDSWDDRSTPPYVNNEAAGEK
The conditions noted are these: product epi-isozizaene (single product); endogenous FPP supply, no FPP added.

Assay [3] concerns the target T3, pentalenene synthase (PentS; codon-optimized coPentS) (Streptomyces exfoliatus, UniProt Q55012).
T3 construct: gene penA; codon-optimized gene, untagged, plasmids pTrc99a / pBbE7a / prstA, expressed in E. coli DH1; also in S. cerevisiae EPY300
T3 sequence (Q55012 2-337): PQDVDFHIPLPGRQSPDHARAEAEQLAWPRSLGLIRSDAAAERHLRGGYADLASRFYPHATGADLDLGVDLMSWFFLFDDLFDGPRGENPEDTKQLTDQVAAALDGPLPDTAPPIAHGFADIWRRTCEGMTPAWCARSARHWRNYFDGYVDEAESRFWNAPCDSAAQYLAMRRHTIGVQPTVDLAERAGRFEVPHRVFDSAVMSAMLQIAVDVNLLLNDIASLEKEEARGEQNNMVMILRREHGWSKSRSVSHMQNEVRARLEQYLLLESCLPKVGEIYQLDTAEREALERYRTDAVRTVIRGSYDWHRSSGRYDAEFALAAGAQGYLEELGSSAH
The conditions noted are these: product pentalenene (single product); endogenous FPP supply, no FPP added.

As for `CC(C)=CCC/C(C)=C/CC/C(C)=C/COP(=O)(O)OP(=O)(O)O` [farnesyl diphosphate], the “GC-MS of decane overlay from E. coli expressing the synthase” value in assay [1] was “culture expressing coMrTPS2 produced a broad spectrum of compounds, including α-isocomene”; in assay [2] it was “cultures expressing coEIZS and coPentS produced single products”; in assay [3], “cultures expressing coEIZS and coPentS produced single products”.
